{
  "source": "ChEMBL document CHEMBL1158459",
  "about": "“Discovery of a peroxisome proliferator activated receptor gamma (PPARgamma) modulator with balanced PPARalpha activity for the treatment of type 2 diabetes and dyslipidemia” (J Med Chem, 2009)",
  "key": {"[1]": {"system": "Mus musculus", "test": "Antidiabetic activity in C57BLKS/J-m+/+Leprdb db/db mouse assessed as reduction in plasma glucose levels at 3 mg/kg, po once daily for 11 days relative to control", "format": "functional", "parameters": "scale not given: the % may be the effect or the level left"}, "[2]": {"system": "Mus musculus", "test": "Antidiabetic activity in C57BLKS/J-m+/+Leprdb db/db mouse assessed as reduction in plasma triglyceride levels at 3 mg/kg, po once daily for 11 days relative to control", "format": "functional", "parameters": "scale not given: the % may be the effect or the level left"}, "[3]": {"system": "Mus musculus", "test": "Antidiabetic activity in ob/ob mouse assessed as reduction in plasma triglyceride levels at 10 mg/kg, po once daily for 5 days relative to control", "format": "functional", "parameters": "scale not given: the % may be the effect or the level left"}, "[4]": {"system": "Mus musculus", "test": "Antidiabetic activity in ob/ob mouse assessed as reduction in plasma glucose levels at 3 mg/kg, po once daily for 5 days relative to control", "format": "functional", "parameters": "scale not given: the % may be the effect or the level left"}, "[5]": {"system": "Mus musculus", "test": "Antidiabetic activity in ob/ob mouse assessed as insulin correction at 3 mg/kg, po once daily for 5 days relative to control", "format": "functional"}, "[6]": {"system": "Mus musculus", "test": "Antidiabetic activity in ob/ob mouse assessed as insulin correction at 10 mg/kg, po once daily for 5 days relative to control", "format": "functional"}, "[7]": {"test": "Cmax in C57BLKS/J-m+/+Leprdb db/db mouse at 3 mg/kg, po once daily for 11 days", "format": "ADME, organism-based", "parameters": "dose 3 mg/kg, route oral", "conditions": "in vivo"}, "[8]": {"test": "Cmax in C57BLKS/J-m+/+Leprdb db/db mouse at 10 mg/kg, po once daily for 11 days", "format": "ADME, organism-based", "parameters": "dose 10 mg/kg, route oral", "conditions": "in vivo"}, "[9]": {"test": "AUC in C57BLKS/J-m+/+Leprdb db/db mouse at 1 mg/kg, po once daily for 11 days", "format": "ADME, organism-based", "parameters": "dose 1 mg/kg, route oral", "conditions": "plasma"}, "[10]": {"test": "AUC in C57BLKS/J-m+/+Leprdb db/db mouse at 3 mg/kg, po once daily for 11 days", "format": "ADME, organism-based", "parameters": "dose 3 mg/kg, route oral", "conditions": "plasma"}, "[11]": {"system": "Mus musculus", "test": "Antidiabetic activity in high fat diet-fed streptozotocin-treated mouse assessed as reduction in plasma glucose levels at 5 mg/kg, po once daily for 12 days relative to control", "format": "functional", "parameters": "scale not given: the % may be the effect or the level left"}, "[12]": {"system": "Rattus norvegicus", "test": "Antidiabetic activity in Zucker fa/fa rat assessed as decrease in free fatty acid levels at 0.3 mg/kg, po once daily for 7 days", "format": "functional, organism-based", "parameters": "dose 0.3 mg/kg"}, "[13]": {"system": "Rattus norvegicus", "test": "Antidiabetic activity in Zucker fa/fa rat assessed as decrease in triglyceride levels at 0.3 mg/kg, po once daily for 7 days", "format": "functional, organism-based", "parameters": "dose 0.3 mg/kg"}, "[14]": {"system": "Rattus norvegicus", "test": "Antidiabetic activity in Zucker fa/fa rat assessed as decrease in triglyceride levels at 15 mg/kg, po once daily for 7 days", "format": "functional, organism-based", "parameters": "dose 15 mg/kg"}, "[15]": {"system": "Rattus norvegicus", "test": "Antidiabetic activity in Zucker fa/fa rat assessed as decrease in triglyceride levels at 10 mg/kg, po once daily for 7 days", "format": "functional, organism-based", "parameters": "dose 10 mg/kg"}, "[16]": {"system": "Rattus norvegicus", "test": "Antidiabetic activity in Zucker fa/fa rat assessed as decrease in triglyceride levels at 100 mg/kg, po once daily for 7 days", "format": "functional, organism-based", "parameters": "dose 100 mg/kg"}, "[17]": {"system": "Rattus norvegicus", "test": "Toxicity in Zucker fa/fa rat assessed as increase in plasma volume at 10 mg/kg, po treated once daily for 7 days", "conditions": "in vivo, 168 h"}, "[18]": {"system": "Rattus norvegicus", "test": "Toxicity in Zucker fa/fa rat assessed as increase in heart weight at 10 mg/kg, po treated once daily for 7 days", "format": "organism-based", "parameters": "dose 10 mg/kg, route oral", "conditions": "in vivo, 168 h"}, "[19]": {"system": "Syrian golden hamster", "test": "Antidiabetic activity in Syrian golden hamster assessed as reduction in cholesterol level at 1 mg/kg, po once daily for 9 days relative to control", "format": "functional, Mesocricetus auratus", "parameters": "scale not given: the % may be the effect or the level left"}, "[20]": {"system": "Syrian golden hamster", "test": "Antidiabetic activity in Syrian golden hamster assessed as reduction in cholesterol level at 3 mg/kg, po once daily for 9 days relative to control", "format": "functional, Mesocricetus auratus", "parameters": "scale not given: the % may be the effect or the level left"}, "[21]": {"system": "Syrian golden hamster", "test": "Antidiabetic activity in Syrian golden hamster assessed as reduction in triglyceride level at 0.3 mg/kg, po once daily for 9 days relative to control", "format": "functional, Mesocricetus auratus", "parameters": "scale not given: the % may be the effect or the level left"}, "[22]": {"test": "AUC in Syrian golden hamster at 1 mg/kg, po once daily for 9 days", "format": "ADME, organism-based, Mesocricetus auratus", "parameters": "dose 1 mg/kg, route oral", "conditions": "plasma"}, "[23]": {"test": "AUC in Beagle dog at 1 mg/kg, po once daily for 14 days", "format": "ADME, organism-based, Canis lupus familiaris", "parameters": "dose 1 mg/kg, route oral", "conditions": "plasma"}, "[24]": {"test": "AUC in Beagle dog at 3 mg/kg, po once daily for 14 days", "format": "ADME, organism-based, Canis lupus familiaris", "parameters": "dose 3 mg/kg, route oral", "conditions": "plasma"}, "[25]": {"system": "Rattus norvegicus", "test": "Toxicity in Sprague-Dawley rat assessed as increase in brown adipose tissue weight at 60 mg/kg, po once daily for 14 days", "format": "organism-based", "parameters": "dose 60 mg/kg, route oral", "conditions": "in vivo, 336 h"}, "[26]": {"system": "Rattus norvegicus", "test": "Toxicity in Sprague-Dawley rat assessed as hematocrit at 60 mg/kg, po once daily for 14 days", "format": "organism-based", "parameters": "dose 60 mg/kg, route oral", "conditions": "in vivo, 336 h"}, "[27]": {"system": "Rattus norvegicus", "test": "Toxicity in Sprague-Dawley rat assessed as increase bilirubin levels at 60 mg/kg, po once daily for 14 days", "format": "organism-based", "parameters": "dose 60 mg/kg, route oral", "conditions": "in vivo, 336 h"}, "[28]": {"target": "Cytochrome P450 2C19 (Homo sapiens, UniProt P33261)", "sequence (P33261 whole entry)": "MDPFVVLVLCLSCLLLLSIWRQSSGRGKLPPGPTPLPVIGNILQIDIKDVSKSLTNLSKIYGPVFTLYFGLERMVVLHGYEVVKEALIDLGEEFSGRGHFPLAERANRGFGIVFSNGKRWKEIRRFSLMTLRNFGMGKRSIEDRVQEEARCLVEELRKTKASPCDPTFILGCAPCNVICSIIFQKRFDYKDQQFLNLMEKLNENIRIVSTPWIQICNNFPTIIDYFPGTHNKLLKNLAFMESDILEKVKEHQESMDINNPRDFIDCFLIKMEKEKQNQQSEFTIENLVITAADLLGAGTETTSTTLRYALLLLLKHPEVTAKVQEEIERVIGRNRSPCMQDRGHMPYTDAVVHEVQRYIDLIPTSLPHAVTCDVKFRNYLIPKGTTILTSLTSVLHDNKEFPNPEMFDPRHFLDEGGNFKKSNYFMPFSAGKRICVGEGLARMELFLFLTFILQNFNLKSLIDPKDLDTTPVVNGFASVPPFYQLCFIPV", "test": "Inhibition of CYP2C19", "format": "ADME"}, "[29]": {"target": "Cytochrome P450 1A2 (Homo sapiens, UniProt P05177)", "sequence (P05177 whole entry)": "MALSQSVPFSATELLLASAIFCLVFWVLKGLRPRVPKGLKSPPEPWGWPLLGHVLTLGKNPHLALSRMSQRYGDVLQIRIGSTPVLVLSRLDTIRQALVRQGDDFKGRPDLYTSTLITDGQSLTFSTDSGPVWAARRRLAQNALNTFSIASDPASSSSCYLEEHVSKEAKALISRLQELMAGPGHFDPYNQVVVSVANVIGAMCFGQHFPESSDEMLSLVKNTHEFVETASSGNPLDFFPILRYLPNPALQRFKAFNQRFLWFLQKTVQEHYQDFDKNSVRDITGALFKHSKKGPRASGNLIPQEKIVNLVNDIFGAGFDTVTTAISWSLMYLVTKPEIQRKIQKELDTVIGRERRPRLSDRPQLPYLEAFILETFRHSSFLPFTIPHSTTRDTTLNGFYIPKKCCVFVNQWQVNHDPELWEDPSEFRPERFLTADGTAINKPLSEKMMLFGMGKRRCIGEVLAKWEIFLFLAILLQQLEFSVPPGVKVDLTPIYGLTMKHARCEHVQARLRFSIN", "test": "Inhibition of CYP1A2", "format": "ADME"}, "[30]": {"target": "Retinoic acid receptor RXR-alpha (Homo sapiens) (UniProt P19793)", "sequence (P19793 whole entry)": "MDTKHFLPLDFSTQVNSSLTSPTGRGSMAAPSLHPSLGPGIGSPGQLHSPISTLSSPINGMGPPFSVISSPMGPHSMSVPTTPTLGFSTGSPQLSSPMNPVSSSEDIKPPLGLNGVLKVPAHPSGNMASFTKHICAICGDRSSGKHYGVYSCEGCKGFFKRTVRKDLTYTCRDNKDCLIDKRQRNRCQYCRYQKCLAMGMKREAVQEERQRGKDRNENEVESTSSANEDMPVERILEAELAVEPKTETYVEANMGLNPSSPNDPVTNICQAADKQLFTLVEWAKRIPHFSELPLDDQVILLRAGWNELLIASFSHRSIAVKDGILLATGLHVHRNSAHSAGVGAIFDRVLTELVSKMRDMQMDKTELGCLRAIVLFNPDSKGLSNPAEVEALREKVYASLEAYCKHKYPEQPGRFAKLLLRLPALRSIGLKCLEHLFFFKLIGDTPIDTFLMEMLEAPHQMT", "test": "Binding affinity to RXRalpha up to 10 uM"}, "[31]": {"target": "Nuclear receptor subfamily 1 group I member 2 (Homo sapiens, UniProt O75469)", "sequence (O75469 whole entry)": "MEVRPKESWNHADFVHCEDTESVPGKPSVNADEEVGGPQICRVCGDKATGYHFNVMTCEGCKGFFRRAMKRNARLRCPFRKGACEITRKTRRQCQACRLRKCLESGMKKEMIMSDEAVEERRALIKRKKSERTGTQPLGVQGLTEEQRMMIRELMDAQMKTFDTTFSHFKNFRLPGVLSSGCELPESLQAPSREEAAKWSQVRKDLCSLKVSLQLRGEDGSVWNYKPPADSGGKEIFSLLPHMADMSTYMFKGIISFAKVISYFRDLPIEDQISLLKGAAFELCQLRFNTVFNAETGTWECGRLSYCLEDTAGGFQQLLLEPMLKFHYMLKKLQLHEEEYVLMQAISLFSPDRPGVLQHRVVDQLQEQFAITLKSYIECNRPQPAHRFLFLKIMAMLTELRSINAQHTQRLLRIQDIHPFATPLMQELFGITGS", "test": "Binding affinity to PXR up to 10 uM"}, "[32]": {"target": "Estrogen receptor beta (Homo sapiens) (UniProt Q92731)", "sequence (Q92731 whole entry)": "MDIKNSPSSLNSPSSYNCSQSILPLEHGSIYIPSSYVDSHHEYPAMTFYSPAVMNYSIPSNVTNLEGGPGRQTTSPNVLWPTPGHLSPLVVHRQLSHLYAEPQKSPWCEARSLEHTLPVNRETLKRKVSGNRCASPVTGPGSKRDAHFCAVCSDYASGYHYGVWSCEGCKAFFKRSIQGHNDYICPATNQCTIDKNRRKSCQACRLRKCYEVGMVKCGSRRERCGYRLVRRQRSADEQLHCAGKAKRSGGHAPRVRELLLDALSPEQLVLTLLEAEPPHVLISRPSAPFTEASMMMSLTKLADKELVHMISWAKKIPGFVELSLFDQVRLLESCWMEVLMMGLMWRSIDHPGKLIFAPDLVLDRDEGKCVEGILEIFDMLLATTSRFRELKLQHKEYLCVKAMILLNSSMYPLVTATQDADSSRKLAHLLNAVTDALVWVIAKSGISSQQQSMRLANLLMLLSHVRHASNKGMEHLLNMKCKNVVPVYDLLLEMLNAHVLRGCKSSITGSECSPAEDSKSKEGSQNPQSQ", "test": "Binding affinity to ERbeta up to 10 uM"}, "[33]": {"target": "Thyroid hormone receptor beta (Homo sapiens) (UniProt P10828)", "sequence (P10828 whole entry)": "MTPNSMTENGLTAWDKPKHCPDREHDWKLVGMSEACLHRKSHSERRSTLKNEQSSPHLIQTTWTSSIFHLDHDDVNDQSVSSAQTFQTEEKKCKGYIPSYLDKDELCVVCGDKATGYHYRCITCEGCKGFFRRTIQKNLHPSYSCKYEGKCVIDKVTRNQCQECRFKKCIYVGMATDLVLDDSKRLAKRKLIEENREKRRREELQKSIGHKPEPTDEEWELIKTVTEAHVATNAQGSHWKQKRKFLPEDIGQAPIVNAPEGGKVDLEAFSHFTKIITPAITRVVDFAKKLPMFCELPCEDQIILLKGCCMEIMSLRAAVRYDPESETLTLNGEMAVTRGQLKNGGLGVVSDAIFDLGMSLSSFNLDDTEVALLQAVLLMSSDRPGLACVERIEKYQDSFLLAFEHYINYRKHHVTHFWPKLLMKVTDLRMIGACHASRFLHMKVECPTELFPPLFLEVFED", "test": "Binding affinity to TRbeta up to 10 uM"}, "[34]": {"target": "Oxysterols receptor LXR-alpha (Homo sapiens) (UniProt Q13133)", "sequence (Q13133 whole entry)": "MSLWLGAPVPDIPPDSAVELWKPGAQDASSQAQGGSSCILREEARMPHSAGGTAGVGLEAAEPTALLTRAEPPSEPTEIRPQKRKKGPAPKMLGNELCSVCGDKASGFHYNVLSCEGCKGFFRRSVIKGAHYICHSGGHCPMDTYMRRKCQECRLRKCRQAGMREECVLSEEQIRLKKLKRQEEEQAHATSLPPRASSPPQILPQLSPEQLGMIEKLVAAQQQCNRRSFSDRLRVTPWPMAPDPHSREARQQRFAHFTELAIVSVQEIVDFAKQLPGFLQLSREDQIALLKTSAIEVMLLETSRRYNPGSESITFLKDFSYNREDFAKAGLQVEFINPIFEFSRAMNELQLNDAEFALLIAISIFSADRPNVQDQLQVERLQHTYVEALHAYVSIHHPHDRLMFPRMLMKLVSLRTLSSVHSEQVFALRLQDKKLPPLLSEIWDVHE", "test": "Activity at LXRalpha receptor up to 10 uM by transactivation assay"}, "[35]": {"target": "Retinoic acid receptor RXR-alpha (Homo sapiens) (UniProt P19793)", "test": "Activity at RXRalpha receptor up to 10 uM by transactivation assay"}, "[36]": {"target": "Estrogen receptor (Homo sapiens) (UniProt P03372)", "sequence (P03372 whole entry)": "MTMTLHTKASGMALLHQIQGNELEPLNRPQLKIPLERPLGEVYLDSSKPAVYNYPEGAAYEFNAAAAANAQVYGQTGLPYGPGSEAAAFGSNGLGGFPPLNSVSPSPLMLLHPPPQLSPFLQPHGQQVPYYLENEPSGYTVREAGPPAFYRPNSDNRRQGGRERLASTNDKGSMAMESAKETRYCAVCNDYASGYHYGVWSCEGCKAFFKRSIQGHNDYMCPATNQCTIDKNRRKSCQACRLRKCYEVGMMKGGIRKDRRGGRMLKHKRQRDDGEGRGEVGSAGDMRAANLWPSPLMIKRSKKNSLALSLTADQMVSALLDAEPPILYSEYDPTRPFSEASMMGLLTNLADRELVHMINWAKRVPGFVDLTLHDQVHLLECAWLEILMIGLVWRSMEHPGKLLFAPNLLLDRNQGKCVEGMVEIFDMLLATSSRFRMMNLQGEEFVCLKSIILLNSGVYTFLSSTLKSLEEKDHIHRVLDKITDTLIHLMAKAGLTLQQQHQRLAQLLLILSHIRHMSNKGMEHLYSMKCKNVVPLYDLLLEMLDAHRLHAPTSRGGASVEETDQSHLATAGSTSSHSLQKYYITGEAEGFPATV", "test": "Activity at ERalpha receptor up to 10 uM by transactivation assay"}, "[37]": {"target": "Thyroid hormone receptor beta (Homo sapiens) (UniProt P10828)", "test": "Activity at TRbeta receptor up to 10 uM by transactivation assay"}, "[38]": {"target": "T1, Peroxisome proliferator-activated receptor gamma (Homo sapiens, UniProt P37231)", "T1 sequence (P37231 whole entry)": "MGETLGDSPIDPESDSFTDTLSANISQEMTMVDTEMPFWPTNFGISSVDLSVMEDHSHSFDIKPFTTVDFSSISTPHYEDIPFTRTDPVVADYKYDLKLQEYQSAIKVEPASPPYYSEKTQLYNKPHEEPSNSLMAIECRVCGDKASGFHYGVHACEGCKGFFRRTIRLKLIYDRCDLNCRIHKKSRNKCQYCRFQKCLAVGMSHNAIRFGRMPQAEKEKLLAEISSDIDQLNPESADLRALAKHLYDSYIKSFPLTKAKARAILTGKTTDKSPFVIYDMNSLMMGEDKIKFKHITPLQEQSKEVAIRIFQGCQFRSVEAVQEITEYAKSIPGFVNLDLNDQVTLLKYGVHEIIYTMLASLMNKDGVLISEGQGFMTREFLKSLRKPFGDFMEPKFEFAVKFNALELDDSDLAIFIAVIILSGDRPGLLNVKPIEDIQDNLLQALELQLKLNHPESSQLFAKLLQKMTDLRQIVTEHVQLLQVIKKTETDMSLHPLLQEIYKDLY", "description": "Inhibition of human PPARgamma receptor by scintillation proximity assay"}, "[39]": {"target": "T1, Peroxisome proliferator-activated receptor gamma", "remark": "listed apart in the source", "description": "Agonist activity at human PPARgamma receptor expressed in african green monkey COS1 cells co-transfected with fused yeast Gal4-DBD by transactivation assay"}},
  "note": "Activity calls are given as the source filed them. The rule behind the calls is not given here.",
  "data": [
    {"smiles": "CC[C@@H](Oc1cccc(Cn2c(C)c(C(=O)c3ccc(Cl)cc3)c3ccc(OC(F)(F)F)cc32)c1)C(=O)O", "values": [
      {"measurement": "Activity", "setting": "[1]", "value": 98, "unit": "%"},
      {"measurement": "Activity", "setting": "[2]", "value": 85, "unit": "%"},
      {"measurement": "Activity", "setting": "[3]", "value": 50, "unit": "%"},
      {"measurement": "Activity", "setting": "[4]", "value": 21, "unit": "%"},
      {"measurement": "Activity", "setting": "[5]", "value": 67, "unit": "%"},
      {"measurement": "Activity", "setting": "[6]", "value": 89, "unit": "%"},
      {"measurement": "Cmax", "setting": "[7]", "value": 5.4, "unit": "µM"},
      {"measurement": "Cmax", "setting": "[8]", "value": 9.6, "unit": "µM"},
      {"measurement": "AUC at 264 h", "setting": "[9]", "value": 1.9, "unit": "µM·h"},
      {"measurement": "AUC at 264 h", "setting": "[10]", "value": 6.4, "unit": "µM·h"},
      {"measurement": "Activity", "setting": "[11]", "value": 75, "unit": "%"},
      {"measurement": "Activity", "setting": "[12]", "value": "Active"},
      {"measurement": "Activity", "setting": "[13]", "value": "Active"},
      {"measurement": "Activity", "setting": "[14]", "value": "Active"},
      {"measurement": "Activity", "setting": "[15]", "value": "Active"},
      {"measurement": "Activity", "setting": "[16]", "value": "Active"},
      {"measurement": "Activity", "setting": "[17]", "value": "Toxic"},
      {"measurement": "Activity", "setting": "[18]", "value": "Toxic"},
      {"measurement": "Activity", "setting": "[19]", "value": 33.9, "unit": "%"},
      {"measurement": "Activity", "setting": "[20]", "value": 51.4, "unit": "%"},
      {"measurement": "Activity", "setting": "[21]", "value": 10.1, "unit": "%"},
      {"measurement": "AUC at 216 h", "setting": "[22]", "value": 0.55, "unit": "µM·h"},
      {"measurement": "AUC at 336 h", "setting": "[23]", "value": 5.41, "unit": "µM·h"},
      {"measurement": "AUC at 336 h", "setting": "[24]", "value": 21.4, "unit": "µM·h"},
      {"measurement": "Activity", "setting": "[25]", "value": 32, "unit": "%"},
      {"measurement": "Activity", "setting": "[26]", "value": -8, "unit": "%"},
      {"measurement": "Activity", "setting": "[27]", "value": 48, "unit": "%"},
      {"measurement": "IC50", "setting": "[28]", "value": 91, "unit": "µM"},
      {"measurement": "IC50", "setting": "[29]", "value": 40, "unit": "µM"},
      {"measurement": "Activity", "setting": "[30]", "value": "inactive"},
      {"measurement": "Activity", "setting": "[31]", "value": "Not Active"},
      {"measurement": "Activity", "setting": "[32]", "value": "inactive"},
      {"measurement": "Activity", "setting": "[33]", "value": "inactive"},
      {"measurement": "Activity", "setting": "[34]", "value": "inactive"},
      {"measurement": "Activity", "setting": "[35]", "value": "inactive"},
      {"measurement": "Activity", "setting": "[36]", "value": "inactive"},
      {"measurement": "Activity", "setting": "[37]", "value": "inactive"},
      {"measurement": "IC50", "setting": "[38]", "value": 0.009, "unit": "µM"},
      {"measurement": "EC50", "setting": "[39]", "value": 0.002, "unit": "µM"}
    ]}
  ]
}
